This passage reports IC50 results from ChEMBL document CHEMBL1125947, “Triply-convergent syntheses of two homochiral arene-fused prostacyclin analogs related to U68,215” (Bioorg Med Chem Lett, 1991).

For this experiment, the species on record is Homo sapiens. Description: Compound was tested for inhibitory activity against collagen induced platelet aggregation. The experiment is classed as functional.

For orientation: IC50 means the concentration that inhibits the measured activity by half. Low readings indicate inhibition by little substance, high ones a need for much substance.

As to `O=C(O)COc1cccc2c1C[C@H]1C[C@@H](O)[C@H](C#C[C@@H](O)C3CCCCC3)[C@H]1C2`, inhibition was half-maximal at 2.9 nM (IC50). Under `O=C(O)COc1cccc2c1C[C@H]1C[C@@H](O)[C@H](C#C[C@@H](O)C3CCCCC3)[C@@H]1C2` stands 52 nM.
